How the values were obtained:
[1] = Titration of approx. 200 mM sulfide in 24 hour old rumen fluid with 1 M MnCl2, BaCl2 or CaCl2, silver/sulfide electrode; parameters: species or system Holstein cows
Procedure: 24 hour old undiluted rumen fluid from rumen fistulated Holstein cows was obtained. 4 ml of Na2S in water (approximately 1 M) was added to 16 ml of the rumen fluid. The final concentration of sulfide ion in the rumen fluid was approximately 200 mM. […] The progress of the reaction was followed using the same silver/sulfide electrode set-up described above (Orion, Ion Plus Silver/Sulfide 9616BNWP).

[2] = Precipitating activity: rumen fluid containing manganese compound titrated with 1.0M Na2S, silver/sulfide electrode; parameters: species or system Holstein cows
Procedure: Next, 0.28 g of MnO(II) was placed in a 100 ml beaker and 20 ml of rumen fluid was added. Then 0.17 g of MnO2(IV) was placed in 100 ml beaker and 20 ml of rumen fluid was added. Each of these compositions, in addition to a rumen fluid control, was then titrated with a 1.0M solution of Na2S. The progress of the reaction was followed using the same silver/sulfide electrode set-up described above (Orion, Ion Plus Silver/Sulfide 9616BNWP).

[Ca+2].[Cl-].[Cl-] [CaCl2]
mVolts ([1]; Volume 0.0 of 1.0M CaCl2, ~200 mM sulfide): 945.1 mVolts | mVolts ([1]; Volume 0.1 of 1.0M CaCl2, ~200 mM sulfide): 939.8 mVolts | mVolts ([1]; Volume 0.3 of 1.0M CaCl2, ~200 mM sulfide): 944.8 mVolts | mVolts ([1]; Volume 0.5 of 1.0M CaCl2, ~200 mM sulfide): 931.6 mVolts | mVolts ([1]; Volume 0.7 of 1.0M CaCl2, ~200 mM sulfide): 931.3 mVolts | mVolts ([1]; Volume 0.9 of 1.0M CaCl2, ~200 mM sulfide): 931.2 mVolts | mVolts ([1]; Volume 1.1 of 1.0M CaCl2, ~200 mM sulfide): 931.1 mVolts | mVolts ([1]; Volume 1.4 of 1.0M CaCl2, ~200 mM sulfide): 930.7 mVolts | mVolts ([1]; Volume 1.6 of 1.0M CaCl2, ~200 mM sulfide): 927.1 mVolts | mVolts ([1]; Volume 1.8 of 1.0M CaCl2, ~200 mM sulfide): 925.7 mVolts | mVolts ([1]; Volume 2.0 of 1.0M CaCl2, ~200 mM sulfide): 924.8 mVolts | mVolts ([1]; Volume 2.2 of 1.0M CaCl2, ~200 mM sulfide): 923.8 mVolts | mVolts ([1]; Volume 2.4 of 1.0M CaCl2, ~200 mM sulfide): 923.0 mVolts | mVolts ([1]; Volume 2.6 of 1.0M CaCl2, ~200 mM sulfide): 921.0 mVolts | mVolts ([1]; Volume 2.8 of 1.0M CaCl2, ~200 mM sulfide): 920.2 mVolts | mVolts ([1]; Volume 3.0 of 1.0M CaCl2, ~200 mM sulfide): 917.5 mVolts | mVolts ([1]; Volume 3.3 of 1.0M CaCl2, ~200 mM sulfide): 916.8 mVolts | mVolts ([1]; Volume 3.4 of 1.0M CaCl2, ~200 mM sulfide): 915.6 mVolts | mVolts ([1]; Volume 3.6 of 1.0M CaCl2, ~200 mM sulfide): 914.9 mVolts | mVolts ([1]; Volume 3.8 of 1.0M CaCl2, ~200 mM sulfide): 914.3 mVolts | mVolts ([1]; Volume 4.0 of 1.0M CaCl2, ~200 mM sulfide): 913.7 mVolts | mVolts ([1]; Volume 4.2 of 1.0M CaCl2, ~200 mM sulfide): 913.1 mVolts | mVolts ([1]; Volume 4.4 of 1.0M CaCl2, ~200 mM sulfide): 912.6 mVolts | mVolts ([1]; Volume 4.6 of 1.0M CaCl2, ~200 mM sulfide): 912.1 mVolts | mVolts ([1]; Volume 4.8 of 1.0M CaCl2, ~200 mM sulfide): 911.0 mVolts | mVolts ([1]; Volume 5.0 of 1.0M CaCl2, ~200 mM sulfide): 910.1 mVolts | mVolts ([1]; Volume 5.2 of 1.0M CaCl2, ~200 mM sulfide): 909.9 mVolts | mVolts ([1]; Volume 5.4 of 1.0M CaCl2, ~200 mM sulfide): 909.5 mVolts | mVolts ([1]; Volume 5.6 of 1.0M CaCl2, ~200 mM sulfide): 908.9 mVolts | mVolts ([1]; Volume 5.8 of 1.0M CaCl2, ~200 mM sulfide): 908.5 mVolts | mVolts ([1]; Volume 6.0 of 1.0M CaCl2, ~200 mM sulfide): 908.0 mVolts | mVolts ([1]; Volume 6.5 of 1.0M CaCl2, ~200 mM sulfide): 906.7 mVolts | mVolts ([1]; Volume 7.0 of 1.0M CaCl2, ~200 mM sulfide): 905.5 mVolts | mVolts ([1]; Volume 7.5 of 1.0M CaCl2, ~200 mM sulfide): 904.5 mVolts | mVolts ([1]; Volume 8.0 of 1.0M CaCl2, ~200 mM sulfide): 903.3 mVolts | mVolts ([1]; Volume 8.5 of 1.0M CaCl2, ~200 mM sulfide): 902.3 mVolts | mVolts ([1]; Volume 9.0 of 1.0M CaCl2, ~200 mM sulfide): 901.3 mVolts | mVolts ([1]; Volume 9.5 of 1.0M CaCl2, ~200 mM sulfide): 900.3 mVolts | mVolts ([1]; Volume 10.0 of 1.0M CaCl2, ~200 mM sulfide): 899.6 mVolts

[O]=[Mn]=[O] [MnO2(IV)]
mVolts ([2]; 100 mM MnO2(IV) in rumen fluid, Vol 1M Na2S 0.0): 597.2 mVolts | mVolts ([2]; 100 mM MnO2(IV) in rumen fluid, Vol 1M Na2S 0.1): 672.5 mVolts | mVolts ([2]; 100 mM MnO2(IV) in rumen fluid, Vol 1M Na2S 0.2): 679.4 mVolts | mVolts ([2]; 100 mM MnO2(IV) in rumen fluid, Vol 1M Na2S 0.3): 688.1 mVolts | mVolts ([2]; 100 mM MnO2(IV) in rumen fluid, Vol 1M Na2S 0.4): 698.0 mVolts | mVolts ([2]; 100 mM MnO2(IV) in rumen fluid, Vol 1M Na2S 0.5): 699.4 mVolts | mVolts ([2]; 100 mM MnO2(IV) in rumen fluid, Vol 1M Na2S 0.7): 709.7 mVolts | mVolts ([2]; 100 mM MnO2(IV) in rumen fluid, Vol 1M Na2S 0.8): 720.0 mVolts | mVolts ([2]; 100 mM MnO2(IV) in rumen fluid, Vol 1M Na2S 0.9): 728.2 mVolts | mVolts ([2]; 100 mM MnO2(IV) in rumen fluid, Vol 1M Na2S 1.0): 738.1 mVolts | mVolts ([2]; 100 mM MnO2(IV) in rumen fluid, Vol 1M Na2S 1.1): 732.5 mVolts | mVolts ([2]; 100 mM MnO2(IV) in rumen fluid, Vol 1M Na2S 1.2): 737.4 mVolts | mVolts ([2]; 100 mM MnO2(IV) in rumen fluid, Vol 1M Na2S 1.3): 740.0 mVolts | mVolts ([2]; 100 mM MnO2(IV) in rumen fluid, Vol 1M Na2S 1.4): 749.2 mVolts | mVolts ([2]; 100 mM MnO2(IV) in rumen fluid, Vol 1M Na2S 1.5): 742.7 mVolts | mVolts ([2]; 100 mM MnO2(IV) in rumen fluid, Vol 1M Na2S 1.8): 762.4 mVolts | mVolts ([2]; 100 mM MnO2(IV) in rumen fluid, Vol 1M Na2S 2.1): 776.0 mVolts | mVolts ([2]; 100 mM MnO2(IV) in rumen fluid, Vol 1M Na2S 2.4): 784.3 mVolts | mVolts ([2]; 100 mM MnO2(IV) in rumen fluid, Vol 1M Na2S 2.6): 791.9 mVolts | mVolts ([2]; 100 mM MnO2(IV) in rumen fluid, Vol 1M Na2S 2.8): 796.6 mVolts | mVolts ([2]; 100 mM MnO2(IV) in rumen fluid, Vol 1M Na2S 3.0): 803.1 mVolts | mVolts ([2]; 100 mM MnO2(IV) in rumen fluid, Vol 1M Na2S 3.2): 806.0 mVolts | mVolts ([2]; 100 mM MnO2(IV) in rumen fluid, Vol 1M Na2S 3.5): 817.4 mVolts | mVolts ([2]; 100 mM MnO2(IV) in rumen fluid, Vol 1M Na2S 3.7): 817.0 mVolts | mVolts ([2]; 100 mM MnO2(IV) in rumen fluid, Vol 1M Na2S 3.9): 816.5 mVolts | mVolts ([2]; 100 mM MnO2(IV) in rumen fluid, Vol 1M Na2S 4.1): 817.2 mVolts

[O]=[Mn] [MnO(II)]
mVolts ([2]; 200 mM MnO(II) in rumen fluid, Vol 1M Na2S 0.0): 604.6 mVolts | mVolts ([2]; 200 mM MnO(II) in rumen fluid, Vol 1M Na2S 0.1): 674.0 mVolts | mVolts ([2]; 200 mM MnO(II) in rumen fluid, Vol 1M Na2S 0.2): 702.9 mVolts | mVolts ([2]; 200 mM MnO(II) in rumen fluid, Vol 1M Na2S 0.4): 724.5 mVolts | mVolts ([2]; 200 mM MnO(II) in rumen fluid, Vol 1M Na2S 0.5): 745.7 mVolts | mVolts ([2]; 200 mM MnO(II) in rumen fluid, Vol 1M Na2S 0.6): 760.6 mVolts | mVolts ([2]; 200 mM MnO(II) in rumen fluid, Vol 1M Na2S 0.7): 777.3 mVolts | mVolts ([2]; 200 mM MnO(II) in rumen fluid, Vol 1M Na2S 0.8): 789.8 mVolts | mVolts ([2]; 200 mM MnO(II) in rumen fluid, Vol 1M Na2S 0.9): 803.7 mVolts | mVolts ([2]; 200 mM MnO(II) in rumen fluid, Vol 1M Na2S 1.0): 803.9 mVolts | mVolts ([2]; 200 mM MnO(II) in rumen fluid, Vol 1M Na2S 1.1): 825.2 mVolts | mVolts ([2]; 200 mM MnO(II) in rumen fluid, Vol 1M Na2S 1.3): 833.7 mVolts | mVolts ([2]; 200 mM MnO(II) in rumen fluid, Vol 1M Na2S 1.4): 843.1 mVolts | mVolts ([2]; 200 mM MnO(II) in rumen fluid, Vol 1M Na2S 1.5): 848.0 mVolts | mVolts ([2]; 200 mM MnO(II) in rumen fluid, Vol 1M Na2S 1.6): 852.1 mVolts

— patent publication US9826761B2, “Compositions and methods for mitigating dietary sulfur in animals” (SarTec Corporation, priority 2008, dated 2017)
